Laboratory results as given in patent US20210024985A1, “Devices and Methods Useful for Imaging Transient and Rare Mechanical Events in Cells” (Emory University, priority 2019, published 2021).
Like-named read-outs stand apart in the source and are kept apart here. Each block holds one molecule with its values, some of them ahead of it.

Columns and labels:
TCR [1] = assay: TCR tension imaging of naïve OT-1 cells in real-time and locked state (mechanical sampling and scanning); type: cell-based
Method: Mechano-locking enhances TCR-pMHC tension signals by accumulating pulling events that are >4.7 pN. The degree of enhancement and dynamics were evaluated. OT-1 T cells were allowed to engage real-time tension probes and then incubated with unlabeled locking strand (200 nM). The unlabeled locking strand was beneficial here because it eliminated bleed-through from the Atto647N tag. Additionally, avoiding the rinsing steps accelerates the experiments and reduces perturbation of cells.
A time course for TCR-N4 pMHC tension signal accumulation for three cells upon addition of the locking strand was imaged. […] Tension occupancy, which is the fraction of the cell contact area showing tension signal, reached 91% in 10 min. The tension occupancy is an indication of the area that is mechanically scanned by the TCR with F >4.7 pN in search for antigen.
T cells mechanically sample their cognate and near cognate ligands over time. […]
The signal accumulation levels differed when cells were presented with antibody, cognate pMHC, and altered peptide ligands. To quantify these differences on a per cell basis, two parameters were defined: the mechanical sampling factor, which is the fold enhancement in integrated tension signal; and the mechanical scanning factor, which reflects the fold increase in tension occupancy (FIG. 3B). […]

TCR [2] = settings: independent of CD8, cited from earlier work
[3] = system: MTFM hairpin tension probe (stem-loop DNA hairpin); assay: Hybridization of locking strand to folded MTFM probe versus unstructured single stranded DNA on model surfaces; type: binding
Method: Fluorescence measurements of in-situ hybridization kinetics between the immobilized MTFM probes and the locking oligonucleotides at 200 nM. Locking oligonucleotides were added to surfaces presenting the MTFM tension probes at room temperature and allowed to bind to the hairpin for >1 h. Hybridization was monitored by the increase in fluorescence due to hairpin opening.
The selectivity of lock strand binding to unfolded hairpins over folded ones was measured by using model surfaces that either presented a folded MTFM probe or an unstructured single stranded DNA sequence. The unstructured sequence included a complementary region to the 17mer, thus providing a model for the opened state of the MTFM hairpin probes.
Conversely, mechanical stretching of DNA with large values of tension is expected to hinder hybridization. This is because forming the B-form duplex becomes less energetically favorable. Indeed, when F≈40 pN for a 24mer, this created a barrier to hybridization. […] Given that TCR forces are below 19 pN, estimates of mechano-selectivity are justified here.
Based on these criteria, five different locking oligonucleotides were designed that ranged in length from 25mer to 13mer to screen (FIG. 7A). Gold nanoparticle MTFM tension probe surfaces were prepared (FIG. 9). […] The locking oligonucleotides were tested. The 17mer has the most desirable properties (FIG. 7C). To estimate mechano-selectivity, the differential binding of locking strand to MTFM probe at rest to that of an unstructured sequence (mimicking opened state of MTFM probe) were compared.

[4] = system: MTFM tension probes opened by naïve OT-1 T cells; assay: Locking/unlocking of tension probes presenting antiCD3ε in live naïve OT-1 T cells; type: cell-based; settings: 200 nM unlocking strand
Method: The mechanically opened probes were locked with 200 nM locking strand over 10 min. After rinsing away excess locking strand, the unlocking strand was added at a final concentration of 200 nM, and the tension signal for the same cells was measured as a function of time.
To test locking/unlocking the oligonucleotide complexes in live cells, naïve OT-1 T cells were allowed to adhere and spread on MTFM probe surfaces presenting antiCD3ε antibodies. Cells generated tension signal as the TCR engaged the antibody and transmitted forces to the probes. Subsequently, the Atto647N-tagged locking strand was added for 10 min, washed, and the same T cells were imaged, confirming binding. […] Significant co-localization between the Cy3B (hairpin opening) and the Atto647N (locking strand) signals was found, as evident from linescan analysis and the Pearson's correlation coefficient of 0.72±0.096 (n=20 cells). The excess locking strand was rinsed away before re-imaging. “Erasing” the stored cellular mechanical information was tested. This process was triggered by adding 200 nM unlocking strand to the sample for 2-3 min and confirmed by imaging the same group of T cells. The unlocking process was rapid and reached completion within 60 s. Control experiments using tension probes with a scrambled stem-loop confirmed the specificity of locking real-time tension. […]

[5] = biological target: OT-1 T-cell receptor (TCR) on OT-1 CD8+ T cells; assay: cell-based or functional assay

Molecule: N4: antigenic pMHC, peptide SIINFEKL (SEQ ID NO: 22), OT-1 TCR antigen derived from chicken ovalbumin
enhancement of the integrated tension signal per cell (TCR [1]; 200 nM unlabeled locking strand, n=16 cells): approximately 189 fold | tension occupancy (TCR [1]; in 10 min after locking strand, F >4.7 pN): 91% | average bond lifetime (TCR [2]; at 10 pN): 800 ms | average bond lifetime (TCR [2]; at zero force): 100 ms

Molecule: locking strand: 17mer locking oligonucleotide GAAAAAAACATTTATAC (SEQ ID NO: 6) that hybridizes to mechanically unfolded hairpin; 8 nt toehold at 3′ end for unlocking (listed as DNA, chemistry not fully specified)
mechano-selectivity: differential binding to MTFM probe at rest vs unstructured sequence [3]: greater than two orders of magnitude | hybridization to the MTFM probes among locking oligonucleotides 13mer to 25mer ([3]; 200 nM, room temperature, >1 h): optimal hybridization | hybridization to the closed hairpin tension probe, incubation without saturation ([3]; closed hairpin tension probe): > 8 h | difference in binding rates (lock binding selectivity between mechanically unfolded and folded probes) ([3]; pseudo first-order kinetics, one-phase association fit, unstructured sequence vs folded MTFM probe): 487 fold | hybridization to the unstructured sequence, time to saturation ([3]; unstructured ssDNA with region complementary to the 17mer): saturated in seconds

Molecule: unlocking strand: strand (SEQ ID NO: 20) that triggers toehold-mediated strand displacement releasing the locking strand (DNA TAGGTAGGGTATAAAATGTTTTTTC; listed as DNA, chemistry not given here)
time to completion of unlocking [4]: ≤ 60 s

More lines, now with the values ahead:

mechanical sampling factor [5]: 66 fold
Molecule: SIIQFEKL (peptide-MHC, part only; not given: MHC molecule, part only) [pMHC Q4 (SIIXFEKL, SEQ ID NO: 23, X=Q)]

enhancement of the integrated N4 tension signal per cell after locking [5]: 189 fold | force transmitted (hairpin probe threshold) [5]: > 4.7 pN | fraction of antigen mechanically scanned over initial contact area within 10 min migration (ICAM-1/pMHC N4 surface) [5]: 81% | mechanical sampling factor [5]: 165 fold | tension occupancy [5]: 91%
Molecule: SIINFEKL (peptide-MHC, part only; not given: MHC molecule, part only) [antigenic N4 pMHC (peptide SIINFEKL, SEQ ID NO: 22)]

mechanical sampling factor [5]: 33 fold
Molecule: SIIVFEKL (peptide-MHC, part only; not given: MHC molecule, part only) [pMHC V4 (SIIXFEKL, SEQ ID NO: 23, X=V)]

mechanical sampling factor [5]: 10 fold
Molecule: SIIGFEKL (peptide-MHC, part only; not given: MHC molecule, part only) [mutant pMHC G4 (SIIGFEKL, SEQ ID NO: 24)]
